Biological target: T1, Menin MLL 4-43 (Homo sapiens, UniProt O00255)
T1 sequence (O00255 1-610): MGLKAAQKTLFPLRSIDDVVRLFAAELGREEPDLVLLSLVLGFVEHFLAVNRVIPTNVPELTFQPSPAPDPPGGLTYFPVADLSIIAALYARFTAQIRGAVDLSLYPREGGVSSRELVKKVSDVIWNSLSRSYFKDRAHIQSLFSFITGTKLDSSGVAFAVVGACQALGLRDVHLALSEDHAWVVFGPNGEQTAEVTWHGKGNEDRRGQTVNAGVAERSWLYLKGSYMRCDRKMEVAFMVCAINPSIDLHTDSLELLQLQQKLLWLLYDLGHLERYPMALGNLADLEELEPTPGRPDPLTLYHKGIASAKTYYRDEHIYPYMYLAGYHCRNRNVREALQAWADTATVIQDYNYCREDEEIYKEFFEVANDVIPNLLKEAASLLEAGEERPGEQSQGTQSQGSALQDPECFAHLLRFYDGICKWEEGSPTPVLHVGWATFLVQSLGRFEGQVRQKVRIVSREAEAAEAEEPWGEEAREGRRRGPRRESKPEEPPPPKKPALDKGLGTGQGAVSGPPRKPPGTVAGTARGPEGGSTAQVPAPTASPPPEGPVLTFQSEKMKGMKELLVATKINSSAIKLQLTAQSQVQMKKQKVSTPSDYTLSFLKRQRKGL
Test: Fluorescence polarization (FP) competition assay of the menin-MLL interaction
Type: binding
Conditions: fluorescence polarization assay; read-out: Menin MLL 4-43 IC50

| IC50 | Compound |
| --- | --- |
| < 50 nM | Cc1c(CN2CCC(Nc3ncnc4sc(CC(F)(F)F)cc34)CC2)ccc2c1cc(C#N)n2C[C@H](C)N1CCN(C=O)CC1 [Compound 65] |
| < 50 nM | Cc1c(CN2CCC(Nc3nc(N)nc4sc(CC(F)(F)F)cc34)CC2)ccc2c1cc(C#N)n2C[C@H](C)N1CCN(S(=O)(=O)CCO)CC1 [Compound 187] |
| > 1000 nM | Cc1nc(NC2CCN(Cc3ccc4c(cc(C#N)n4C[C@H](C)N4CCN(S(C)(=O)=O)CC4)c3C)CC2)c2c(C)c(CC(F)(F)F)sc2n1 [Compound 242] |
| 20 to 1000 nM | C=CC(=O)Nc1ccc(C(Cn2c(C#N)cc3c(C)c(CN4CCC(Nc5ncnc6sc(CC(F)(F)F)cc56)CC4)ccc32)OC)cc1 (stereo not drawn) [Compound 1] |
| < 50 nM | CNc1nc(NC2CCN(Cc3ccc4c(cc(C#N)n4C[C@H](C)N4CCN(S(C)(=O)=O)C(CO)C4)c3C)CC2)c2cc(CC(F)(F)F)sc2n1 (stereo partly drawn) [Compound 233] |
| < 50 nM | CCCNS(=O)(=O)N1CCN([C@@H](C)Cn2c(C#N)cc3c(C)c(CN4CCC(Nc5ncnc6sc(CC(F)(F)F)cc56)CC4)ccc32)CC1 [Compound 141] |
| 50 to 250 nM | Cc1c(CN2CCC(Nc3ncnc4sc(CC(F)(F)F)cc34)CC2)ccc2c1cc(C#N)n2CCc1ccc(NC(=O)C2(C#N)CC2)cc1 [Compound 1002] |
| < 50 nM | CNc1nc(NC2CCN(Cc3ccc4c(cc(C#N)n4CC(C)C4CCN(S(C)(=O)=O)CC4)c3C)CC2)c2cc(CC(F)(F)F)sc2n1 (stereo not drawn) [Compound 247] |
| 50 to 250 nM | C[C@@H](Cn1c(C#N)cc2cc(CN3CCC(Nc4ncnc5sc(CC(F)(F)F)cc45)CC3)c(O)cc21)N1CCN(S(C)(=O)=O)CC1 [Compound 160] |
| 20 to 1000 nM | CC[C@H]1CN(C(C)Cn2c(C#N)cc3c(C)c(CN4CCC(Nc5ncnc6sc(CC(F)(F)F)cc56)CC4)ccc32)CCN1S(C)(=O)=O (stereo partly drawn) [Compound 26] |
| 20 to 1000 nM | Cc1c(CN2CCC(Nc3ncnc4sc(CC(F)(F)F)cc34)CC2)ccc2c1cc(C#N)n2CCN1CCC2(CC1)CCN(S(C)(=O)=O)C2 [Compound 52] |
| 50 to 250 nM | Cc1c(CN2CCC(Nc3ncnc4sc(CC(F)(F)F)cc34)CC2)ccc2c1cc(C#N)n2C[C@H](C)N1CCN(S(C)(=O)=O)[C@H](C)C1 [Compound 19] |
| < 50 nM | Cc1c(CN2CCC(Nc3nc(CO)nc4sc(CC(F)(F)F)cc34)CC2)ccc2c1cc(C#N)n2C[C@H](C)N1CCN(S(C)(=O)=O)CC1 [Compound 246] |
| 50 to 250 nM | Cc1c(CN2CCC(Nc3ncnc4sc(CC(F)(F)F)cc34)CC2)ccc2c1cc(C#N)n2CC(C)N1CCN(S(C)(=O)=O)CC1 (stereo not drawn) [Compound 2] |
| < 50 nM | CNc1nc(NC2CCN(Cc3ccc4c(cc(C#N)n4C[C@H](C)N4CCNC(=O)C4)c3C)CC2)c2cc(CC(F)(F)F)sc2n1 [Compound 244] |
| < 50 nM | Cc1c(CN2CCC(Nc3ncnc4sc(CC(F)(F)F)cc34)CC2)ccc2c1cc(C#N)n2C[C@H](C)N1C[C@@H](C)C(S(C)(=O)=O)[C@H](C)C1 [Compound 92] |
| 20 to 1000 nM | Cc1c(CN2CCC(Nc3ncnc4sc(CC(F)(F)F)cc34)CC2)ccc2c1cc(C#N)n2CCN1CC2(CCN(S(C)(=O)=O)C2)C1 [Compound 58] |
| 20 to 1000 nM | Cc1c(CN2CCC(Nc3ncnc4sc(CC(F)(F)F)cc34)CC2)ccc2c1cc(C#N)n2CCN1CCC(NS(C)(=O)=O)CC1 [Compound 1000] |
| < 50 nM | Cc1c(CN2CCC(Nc3nc(N)nc4sc(CC(F)(F)F)cc34)CC2)ccc2c1cc(C#N)n2C[C@H](C)N1CCN(C(C)C)CC1 [Compound 166] |
| 50 to 250 nM | Cc1nc(NC2CCN(Cc3ccc4c(cc(C#N)n4C[C@H](C)N4CCN(S(=O)(=O)C5CC5)CC4)c3C)CC2)c2cc(CC(F)(F)F)sc2n1 [Compound 146] |
| 50 to 250 nM | Cc1c(CN2CCC(Nc3ncnc4sc(CC(F)(F)F)cc34)CC2)ccc2c1cc(C#N)n2CC(C)N1C[C@H](C)N(S(C)(=O)=O)[C@@H](C)C1 (stereo partly drawn) [Compound 21] |
| > 1000 nM | CCC(Cn1c(C#N)cc2c(C)c(CN3CCC(Nc4ncnc5sc(CC(F)(F)F)cc45)CC3)ccc21)N1CCN(S(C)(=O)=O)CC1 (stereo not drawn) [Compound 15] |
| < 50 nM | Cc1nc(NC2CCN(Cc3ccc4c(cc(C#N)n4C[C@H](C)N4CCS(=O)(=O)CC4)c3C)CC2)c2cc(CC(F)(F)F)sc2n1 [Compound 219] |
| 20 to 1000 nM | Cc1c(CN2CCC(Nc3ncnc4sc(CC(F)(F)F)cc34)CC2)ccc2c1cc(C#N)n2CCC1CCN(S(C)(=O)=O)C(C)C1 (stereo not drawn) [Compound 59] |
| < 50 nM | CNc1nc(NC2CCN(Cc3ccc4c(cc(C#N)n4CCN4CCNC(=O)C4)c3C)CC2)c2cc(CC(F)(F)F)sc2n1 [Compound 1025] |
| 50 to 250 nM | Cc1c(CN2CCC(Nc3ncnc4sc(CC(F)(F)F)cc34)CC2)ccc2c1cc(C#N)n2C[C@H](C)N1CCN(S(=O)(=O)C(F)F)CC1 [Compound 144] |

| IC50 | Compound |
| --- | --- |
| 50 to 250 nM | Cc1c(CN2CCC(Nc3nc(N)nc4sc(CC(F)(F)F)cc34)CC2)ccc2c1cc(C#N)n2C[C@@H](C)N1C[C@@H](C)N(S(C)(=O)=O)[C@H](C)C1 [Compound 180] |
| 50 to 250 nM | [2H]C1([2H])N(C(C)Cn2c(C#N)cc3c(C)c(CN4CCC(Nc5ncnc6sc(CC(F)(F)F)cc56)CC4)ccc32)C([2H])([2H])C([2H])([2H])N(S(C)(=O)=O)C1([2H])[2H] (stereo not drawn) [Compound 161] |
| < 50 nM | CNc1nc(NC2CCN(Cc3ccc4c(cc(C#N)n4C[C@H](C)N4CCN(S(C)(=O)=O)[C@H](C(=O)N(C)C)C4)c3C)CC2)c2cc(CC(F)(F)F)sc2n1 [Compound 196] |
| 50 to 250 nM | Cc1c(CN2CCC(Nc3ncnc4sc(CC(F)(F)F)cc34)CC2)ccc2c1cc(C#N)n2C[C@H](C)N1CCN(S(=O)(=O)N2CC2)CC1 [Compound 140] |
| 20 to 1000 nM | Cc1c(CN2CCC(Nc3ncnc4sc(CC(F)(F)F)cc34)CC2)ccc2c1cc(C#N)n2CC(C)N1CC(NS(C)(=O)=O)C1 (stereo not drawn) [Compound 169] |
| 50 to 250 nM | CNc1nc(NC2CCN(Cc3ccc4c(cc(C#N)n4C[C@H](C)N4CCN(S(=O)(=O)CF)CC4)c3C)CC2)c2cc(CC(F)(F)F)sc2n1 [Compound 198] |
| < 50 nM | CNc1nc(NC2CCN(Cc3ccc4c(cc(C#N)n4C[C@H](C)N4CCN(C)CC4=O)c3C)CC2)c2cc(CC(F)(F)F)sc2n1 [Compound 226] |
| 50 to 250 nM | Cc1c(CN2CCC(Nc3ncnc4sc(CC(F)(F)F)cc34)CC2)ccc2c1cc(C#N)n2C[C@H](C)N1CCN(P(C)(C)=O)CC1 [Compound 150] |
| > 1000 nM | Cc1c(CN2CCC(Nc3ncnc4sc(CC(F)(F)F)cc34)CC2)ccc2c1cc(C#N)n2CC(C)(C)N1CCN(S(C)(=O)=O)CC1 [Compound 16] |
| < 50 nM | CNC(=O)CC1CCN([C@@H](C)Cn2c(C#N)cc3c(C)c(CN4CCC(Nc5nc(NC)nc6sc(CC(F)(F)F)cc56)CC4)ccc32)CC1 [Compound 206] |
| < 50 nM | Cc1c(CN2CCC(Nc3ncnc4sc(CC(F)(F)F)cc34)CC2)ccc2c1cc(C#N)n2C[C@@H](C)N1CCN(S(C)(=O)=O)[C@H](C)C1 [Compound 20] |
| < 50 nM | CNC(=O)CN1CCN([C@@H](C)Cn2c(C#N)cc3c(C)c(CN4CCC(Nc5nc(NC)nc6sc(CC(F)(F)F)cc56)CC4)ccc32)CC1 [Compound 189] |
| < 50 nM | Cc1c(CN2CCC(Nc3ncnc4sc(CC(F)(F)F)cc34)CC2)ccc2c1cc(C#N)n2CC(C)N1C[C@@H](C)N(S(C)(=O)=O)[C@H](C)C1 (stereo partly drawn) [Compound 22] |
| > 1000 nM | Cc1c(CN2CCC(Nc3ncnc4sc(CC(F)(F)F)cc34)CC2)ccc2c1cc(C#N)n2CCC1(C)CCN(S(C)(=O)=O)CC1 [Compound 60] |
| 20 to 1000 nM | Cc1c(CN2CCC(Nc3ncnc4sc(CC(F)(F)F)cc34)CC2)ccc2c1cc(C#N)n2CC(C)N1CCN(S(C)(=O)=O)CC1 (stereo not drawn) [Compound 3] |
| > 1000 nM | C=CC(=O)N(C)c1ccc(CCn2c(C#N)cc3c(C)c(CN4CCC(Nc5ncnc6sc(CC(F)(F)F)cc56)CC4)ccc32)cc1 [Compound 1010] |
| > 1000 nM | Cc1c(CN2CCC(Nc3ncnc4sc(CC(F)(F)F)cc34)CC2)ccc2c1cc(C#N)n2C[C@@H](C)N1CCN(S(=O)(=O)CF)CC1 [Compound 71] |
| 50 to 250 nM | Cc1c(CN2CCC(Nc3ncnc4sc(CC(F)(F)F)cc34)CC2)ccc2c1cc(C#N)n2CC(C)N1CCN(S(C)(=O)=O)C(C)C1 (stereo not drawn) [Compound 11] |
| 20 to 1000 nM | Cc1c(CN2CCC(Nc3ncnc4sc(CC(F)(F)F)cc34)CC2)ccc2c1cc(C#N)n2CC(C)N1CCN(S(C)(=O)=O)C(C(=O)O)C1 (stereo not drawn) [Compound 82] |
| < 50 nM | CNS(=O)(=O)C1CCN([C@@H](C)Cn2c(C#N)cc3c(C)c(CN4CCC(Nc5nc(C)nc6sc(CC(F)(F)F)cc56)CC4)ccc32)CC1 [Compound 186] |
| 50 to 250 nM | Cc1c(CN2CCC(Nc3ncnc4sc(CC(F)(F)F)cc34)CC2)ccc2c1cc(C#N)n2CCN1C[C@@H](C)N(S(C)(=O)=O)[C@@H](C)C1 [Compound 46] |
| < 50 nM | CNc1nc(NC2CCN(Cc3ccc4c(cc(C#N)n4C[C@H](C)N4CCN(S(=O)(=O)CC(C)C)CC4)c3C)CC2)c2cc(CC(F)(F)F)sc2n1 [Compound 248] |
| < 50 nM | Cc1c(CN2CCC(Nc3ncnc4sc(CC(F)(F)F)cc34)CC2)ccc2c1cc(C#N)n2C[C@H](C)N1CCN(S(C)(=O)=O)[C@@H](C)C1 [Compound 18] |
| 50 to 250 nM | Cc1c(CN2CCC(Nc3ncnc4sc(CC(F)(F)F)cc34)CC2)ccc2c1cc(C#N)n2C[C@H](C)N1CCN(S(=O)(=O)NCC(F)(F)F)CC1 [Compound 130] |
| < 50 nM | CNc1nc(NC2CCN(Cc3ccc4c(cc(C#N)n4C[C@H](C)N4CCN(C)C(=O)C4)c3C)CC2)c2cc(CC(F)(F)F)sc2n1 [Compound 243] |
